Reference: the kinase profiling compilation of Christmann-Franck et al. (2016)

Legend:
Assay in all cases: radiometric filter-binding kinase assay
SRC (human) = SRC (human) (UniProt P12931)
ROCK2 (rat) = details: accession and sequence are those of the human protein
AURKA (human) = AURKA (human) (UniProt O14965)
MARK1 (human) = MARK1 (human) (UniProt Q9P0L2)
PRKCZ (human) = PRKCZ (human) (UniProt Q05513)
INSR (human) = INSR (human) (UniProt P06213)
EPHB4 (human) = EPHB4 (human) (UniProt P54760)
Sequence of EPHB4 (human) (P54760 whole entry, looked up): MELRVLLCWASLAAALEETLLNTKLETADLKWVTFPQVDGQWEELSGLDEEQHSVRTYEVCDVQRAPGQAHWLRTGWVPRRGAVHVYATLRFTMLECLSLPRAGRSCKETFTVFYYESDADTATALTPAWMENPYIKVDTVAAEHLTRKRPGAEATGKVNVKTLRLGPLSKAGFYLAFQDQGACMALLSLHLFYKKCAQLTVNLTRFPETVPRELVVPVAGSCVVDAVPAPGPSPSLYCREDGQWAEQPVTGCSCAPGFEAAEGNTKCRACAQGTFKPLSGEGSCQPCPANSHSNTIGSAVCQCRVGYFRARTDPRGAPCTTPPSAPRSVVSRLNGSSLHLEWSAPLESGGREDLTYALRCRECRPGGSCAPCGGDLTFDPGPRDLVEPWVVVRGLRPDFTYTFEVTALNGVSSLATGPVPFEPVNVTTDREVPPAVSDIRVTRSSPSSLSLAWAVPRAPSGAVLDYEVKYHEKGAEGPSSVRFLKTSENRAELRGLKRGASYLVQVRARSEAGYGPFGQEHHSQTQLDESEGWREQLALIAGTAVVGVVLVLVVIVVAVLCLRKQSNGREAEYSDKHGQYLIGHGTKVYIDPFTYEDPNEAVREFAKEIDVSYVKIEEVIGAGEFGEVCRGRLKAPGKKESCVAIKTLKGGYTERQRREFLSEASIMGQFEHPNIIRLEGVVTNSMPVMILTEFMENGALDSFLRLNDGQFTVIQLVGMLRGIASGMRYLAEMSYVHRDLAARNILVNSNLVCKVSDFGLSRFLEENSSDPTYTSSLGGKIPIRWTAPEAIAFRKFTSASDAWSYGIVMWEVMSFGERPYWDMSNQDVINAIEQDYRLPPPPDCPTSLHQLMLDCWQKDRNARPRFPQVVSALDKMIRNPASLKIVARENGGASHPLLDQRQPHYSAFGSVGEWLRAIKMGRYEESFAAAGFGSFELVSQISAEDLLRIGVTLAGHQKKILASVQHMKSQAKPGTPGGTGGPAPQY

MYLK (human) = MYLK (human) (UniProt Q15746)
Sequence of MYLK (human) (Q15746 whole entry, looked up): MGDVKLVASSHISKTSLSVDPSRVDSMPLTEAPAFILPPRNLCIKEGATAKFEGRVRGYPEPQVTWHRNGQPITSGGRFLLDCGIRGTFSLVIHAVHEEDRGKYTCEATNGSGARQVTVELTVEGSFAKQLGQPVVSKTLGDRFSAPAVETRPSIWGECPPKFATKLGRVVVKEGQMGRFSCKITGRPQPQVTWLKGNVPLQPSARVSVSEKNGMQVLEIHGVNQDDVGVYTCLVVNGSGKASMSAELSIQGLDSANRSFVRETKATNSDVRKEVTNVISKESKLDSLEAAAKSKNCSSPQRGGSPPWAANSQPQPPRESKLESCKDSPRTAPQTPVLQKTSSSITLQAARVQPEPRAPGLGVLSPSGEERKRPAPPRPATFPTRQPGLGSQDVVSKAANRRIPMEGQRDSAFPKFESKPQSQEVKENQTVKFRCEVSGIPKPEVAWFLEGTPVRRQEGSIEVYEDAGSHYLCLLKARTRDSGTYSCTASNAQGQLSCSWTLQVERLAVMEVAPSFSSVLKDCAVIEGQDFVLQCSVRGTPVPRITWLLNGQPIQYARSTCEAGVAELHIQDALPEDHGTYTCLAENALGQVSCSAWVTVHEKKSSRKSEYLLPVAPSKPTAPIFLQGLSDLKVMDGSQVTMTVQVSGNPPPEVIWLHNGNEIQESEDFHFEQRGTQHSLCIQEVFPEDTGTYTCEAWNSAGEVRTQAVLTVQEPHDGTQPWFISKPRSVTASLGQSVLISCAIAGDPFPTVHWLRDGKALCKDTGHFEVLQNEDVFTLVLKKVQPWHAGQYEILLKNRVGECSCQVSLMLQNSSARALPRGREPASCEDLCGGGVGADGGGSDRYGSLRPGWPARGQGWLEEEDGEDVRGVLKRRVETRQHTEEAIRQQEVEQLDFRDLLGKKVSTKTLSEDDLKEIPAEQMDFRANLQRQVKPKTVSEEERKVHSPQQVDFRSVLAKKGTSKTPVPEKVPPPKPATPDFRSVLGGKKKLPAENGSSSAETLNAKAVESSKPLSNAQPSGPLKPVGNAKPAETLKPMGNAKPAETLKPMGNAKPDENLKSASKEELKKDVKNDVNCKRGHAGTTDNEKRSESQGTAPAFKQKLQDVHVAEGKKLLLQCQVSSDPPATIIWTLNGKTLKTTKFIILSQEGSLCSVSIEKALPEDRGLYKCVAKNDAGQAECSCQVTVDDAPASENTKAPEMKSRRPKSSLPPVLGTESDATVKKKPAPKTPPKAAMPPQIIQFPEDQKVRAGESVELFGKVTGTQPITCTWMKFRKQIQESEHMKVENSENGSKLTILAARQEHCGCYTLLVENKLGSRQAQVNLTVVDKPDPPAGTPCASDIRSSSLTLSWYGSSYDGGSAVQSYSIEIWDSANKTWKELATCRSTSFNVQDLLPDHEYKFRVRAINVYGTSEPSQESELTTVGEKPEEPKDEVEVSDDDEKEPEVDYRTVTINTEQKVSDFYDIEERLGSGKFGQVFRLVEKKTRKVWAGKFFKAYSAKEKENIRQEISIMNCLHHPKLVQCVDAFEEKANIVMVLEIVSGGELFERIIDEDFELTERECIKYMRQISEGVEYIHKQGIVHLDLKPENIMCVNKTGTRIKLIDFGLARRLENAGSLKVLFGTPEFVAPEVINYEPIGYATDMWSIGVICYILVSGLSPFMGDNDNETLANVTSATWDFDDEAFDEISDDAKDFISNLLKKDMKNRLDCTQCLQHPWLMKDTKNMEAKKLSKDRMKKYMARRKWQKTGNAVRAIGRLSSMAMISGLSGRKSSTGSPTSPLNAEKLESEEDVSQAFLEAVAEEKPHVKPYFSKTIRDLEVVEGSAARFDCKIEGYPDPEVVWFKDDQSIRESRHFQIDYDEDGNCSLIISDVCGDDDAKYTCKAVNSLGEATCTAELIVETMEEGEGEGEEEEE

MAP3K11 (human) = MAP3K11 (human) (UniProt Q16584)
Sequence of MAP3K11 (human) (Q16584 whole entry, looked up): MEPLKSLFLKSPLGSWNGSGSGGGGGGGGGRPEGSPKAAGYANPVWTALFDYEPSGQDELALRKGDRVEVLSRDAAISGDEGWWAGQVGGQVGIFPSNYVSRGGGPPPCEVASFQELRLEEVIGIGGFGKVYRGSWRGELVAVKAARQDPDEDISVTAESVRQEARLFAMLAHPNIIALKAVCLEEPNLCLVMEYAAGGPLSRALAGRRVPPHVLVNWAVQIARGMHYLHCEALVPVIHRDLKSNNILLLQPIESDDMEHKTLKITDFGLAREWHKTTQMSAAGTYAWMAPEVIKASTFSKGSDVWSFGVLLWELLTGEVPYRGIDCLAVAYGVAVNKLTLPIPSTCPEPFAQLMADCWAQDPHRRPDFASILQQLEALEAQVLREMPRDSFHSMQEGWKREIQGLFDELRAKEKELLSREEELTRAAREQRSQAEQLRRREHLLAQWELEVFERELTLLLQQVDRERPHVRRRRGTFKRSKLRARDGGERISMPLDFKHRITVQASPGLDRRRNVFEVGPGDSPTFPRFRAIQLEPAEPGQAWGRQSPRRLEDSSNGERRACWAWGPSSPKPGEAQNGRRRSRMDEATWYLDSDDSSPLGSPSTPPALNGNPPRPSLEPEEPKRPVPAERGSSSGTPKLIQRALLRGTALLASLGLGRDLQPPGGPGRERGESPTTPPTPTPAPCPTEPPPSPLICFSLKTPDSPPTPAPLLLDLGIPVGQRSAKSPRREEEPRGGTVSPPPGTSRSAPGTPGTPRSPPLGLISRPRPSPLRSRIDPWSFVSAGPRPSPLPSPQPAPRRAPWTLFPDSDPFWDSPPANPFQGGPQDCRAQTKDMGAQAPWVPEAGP

MAPKAPK2 (human) = MAPKAPK2 (human) (UniProt P49137)
LRRK2 (human) = LRRK2 (human) (UniProt Q5S007)
LCK (mouse) = details: accession and sequence are those of the human protein
EPHA2 (human) = EPHA2 (human) (UniProt P29317)
IKBKB (human) = IKBKB (human) (UniProt O14920)
AURKB (human) = AURKB (human) (UniProt Q96GD4)
Sequence of AURKB (human) (Q96GD4 whole entry, looked up): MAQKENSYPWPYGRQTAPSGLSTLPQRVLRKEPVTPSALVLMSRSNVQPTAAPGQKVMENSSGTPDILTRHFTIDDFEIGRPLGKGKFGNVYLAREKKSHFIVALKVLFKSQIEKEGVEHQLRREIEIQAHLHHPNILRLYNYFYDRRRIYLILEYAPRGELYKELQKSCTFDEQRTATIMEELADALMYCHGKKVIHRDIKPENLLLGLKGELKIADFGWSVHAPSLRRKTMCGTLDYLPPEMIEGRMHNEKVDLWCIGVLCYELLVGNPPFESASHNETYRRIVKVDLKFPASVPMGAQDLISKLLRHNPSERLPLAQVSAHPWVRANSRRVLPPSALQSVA

IKBKE (human) = IKBKE (human) (UniProt Q14164)
PIM3 (human) = PIM3 (human) (UniProt Q86V86)
DYRK2 (human) = DYRK2 (human) (UniProt Q92630)
Sequence of DYRK2 (human) (Q92630 whole entry, looked up): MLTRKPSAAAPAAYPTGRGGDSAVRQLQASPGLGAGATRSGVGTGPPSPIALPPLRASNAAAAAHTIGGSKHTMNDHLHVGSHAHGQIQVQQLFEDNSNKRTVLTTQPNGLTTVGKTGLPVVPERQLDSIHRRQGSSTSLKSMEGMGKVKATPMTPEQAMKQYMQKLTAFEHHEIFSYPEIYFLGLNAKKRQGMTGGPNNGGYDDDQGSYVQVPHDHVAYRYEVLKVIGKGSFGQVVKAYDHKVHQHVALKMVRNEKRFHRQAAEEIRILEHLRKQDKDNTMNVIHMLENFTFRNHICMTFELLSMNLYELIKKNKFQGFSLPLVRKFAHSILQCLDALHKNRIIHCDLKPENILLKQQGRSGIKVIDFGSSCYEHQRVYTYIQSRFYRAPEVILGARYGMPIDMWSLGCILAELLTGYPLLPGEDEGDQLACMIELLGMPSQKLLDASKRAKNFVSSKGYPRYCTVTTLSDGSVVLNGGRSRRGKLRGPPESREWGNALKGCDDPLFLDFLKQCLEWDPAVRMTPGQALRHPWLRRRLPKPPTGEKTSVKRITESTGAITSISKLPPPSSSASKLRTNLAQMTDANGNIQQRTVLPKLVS

NEK6 (human) = NEK6 (human) (UniProt Q9HC98)
PRKCA (human) = PRKCA (human) (UniProt P17252)
MELK (human) = MELK (human) (UniProt Q14680)
MAPK12 (human) = MAPK12 (human) (UniProt P53778)
MST4 (human) = MST4 (human) (UniProt Q9P289)
MKNK1 (human) = MKNK1 (human) (UniProt Q9BUB5)
[1] = tested on: AKT1 (human), P31749 [S473D]
TBK1 (human) = TBK1 (human) (UniProt Q9UHD2)
NTRK1 (human) = NTRK1 (human) (UniProt P04629)
RPS6KA1 KD1 KD2 (human) = RPS6KA1 KD1 KD2 (human) (UniProt Q15418)
MAPK3 (human) = MAPK3 (human) (UniProt P27361)
MARK2 (human) = MARK2 (human) (UniProt Q7KZI7)
MAPKAPK5 (human) = MAPKAPK5 (human) (UniProt Q8IW41)
CSNK2A1 (human) = CSNK2A1 (human) (UniProt P68400)
SYK (human) = SYK (human) (UniProt P43405)

Sequence of AURKA (human) (O14965 whole entry, looked up): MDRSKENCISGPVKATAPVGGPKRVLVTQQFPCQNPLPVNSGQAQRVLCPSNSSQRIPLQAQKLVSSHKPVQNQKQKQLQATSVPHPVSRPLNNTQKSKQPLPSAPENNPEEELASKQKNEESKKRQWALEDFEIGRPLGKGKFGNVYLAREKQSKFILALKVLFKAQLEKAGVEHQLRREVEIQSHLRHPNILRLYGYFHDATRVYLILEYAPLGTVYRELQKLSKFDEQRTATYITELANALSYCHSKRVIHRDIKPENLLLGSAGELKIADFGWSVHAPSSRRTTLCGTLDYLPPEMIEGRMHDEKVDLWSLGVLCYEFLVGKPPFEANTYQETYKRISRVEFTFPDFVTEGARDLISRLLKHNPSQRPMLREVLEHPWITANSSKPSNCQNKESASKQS

Compound: COc1cc(C(=O)N2CCC(N3CCN(C)CC3)CC2)ccc1Nc1ncc2c(n1)N(C)c1ccccc1C(=O)N2C
- residual activity (SRC (human); compound 1.0 µM): 99%
- residual activity (SRC (human); compound 10.0 µM): 99%
- residual activity (ROCK2 (rat); compound 1.0 µM): 84%
- residual activity (ROCK2 (rat); compound 10.0 µM): 84%
- IC50 (AURKA (human)): 1.2 µM
- residual activity (AURKA (human); compound 1.0 µM): 33%
- residual activity (AURKA (human); compound 10.0 µM): 5%
- residual activity (MARK1 (human); compound 1.0 µM): 89%
- residual activity (MARK1 (human); compound 10.0 µM): 93%
- residual activity (PRKCZ (human); compound 1.0 µM): 94%
- residual activity (PRKCZ (human); compound 10.0 µM): 104%
- residual activity (INSR (human); compound 1.0 µM): 104%
- residual activity (INSR (human); compound 10.0 µM): 103%
- residual activity (EPHB4 (human); compound 1.0 µM): 90%
- residual activity (EPHB4 (human); compound 10.0 µM): 107%
- IC50 (MYLK (human)): 12.2 µM
- residual activity (MYLK (human); compound 1.0 µM): 76%
- residual activity (MYLK (human); compound 10.0 µM): 25%
- residual activity (MAP3K11 (human); compound 1.0 µM): 94%
- residual activity (MAP3K11 (human); compound 10.0 µM): 84%
- residual activity (MAPKAPK2 (human); compound 1.0 µM): 86%
- residual activity (MAPKAPK2 (human); compound 10.0 µM): 84%
- IC50 (LRRK2 (human)): 0.013 µM
- residual activity (LCK (mouse); compound 1.0 µM): 106%
- residual activity (LCK (mouse); compound 10.0 µM): 99%
- residual activity (EPHA2 (human); compound 1.0 µM): 98%
- residual activity (EPHA2 (human); compound 10.0 µM): 91%
- residual activity (IKBKB (human); compound 1.0 µM): 103%
- residual activity (IKBKB (human); compound 10.0 µM): 106%
- IC50 (AURKB (human)): 1.1 µM
- residual activity (AURKB (human); compound 1.0 µM): 64%
- residual activity (AURKB (human); compound 10.0 µM): 28%
- residual activity (IKBKE (human); compound 1.0 µM): 76%
- residual activity (IKBKE (human); compound 10.0 µM): 88%
- residual activity (PIM3 (human); compound 1.0 µM): 97%
- residual activity (PIM3 (human); compound 10.0 µM): 76%
- residual activity (DYRK2 (human); compound 1.0 µM): 90%
- residual activity (DYRK2 (human); compound 10.0 µM): 98%
- residual activity (NEK6 (human); compound 1.0 µM): 90%
- residual activity (NEK6 (human); compound 10.0 µM): 110%
- residual activity (PRKCA (human); compound 1.0 µM): 95%
- residual activity (PRKCA (human); compound 10.0 µM): 97%
- residual activity (MELK (human); compound 1.0 µM): 88%
- residual activity (MELK (human); compound 10.0 µM): 92%
- residual activity (MAPK12 (human); compound 1.0 µM): 90%
- residual activity (MAPK12 (human); compound 10.0 µM): 106%
- residual activity (MST4 (human); compound 1.0 µM): 90%
- residual activity (MST4 (human); compound 10.0 µM): 87%
- residual activity (MKNK1 (human); compound 1.0 µM): 86%
- residual activity (MKNK1 (human); compound 10.0 µM): 53%
- residual activity ([1]; compound 1.0 µM): 71%
- residual activity ([1]; compound 10.0 µM): 81%
- residual activity (TBK1 (human); compound 1.0 µM): 94%
- residual activity (TBK1 (human); compound 10.0 µM): 104%
- residual activity (NTRK1 (human); compound 1.0 µM): 79%
- residual activity (NTRK1 (human); compound 10.0 µM): 32%
- residual activity (RPS6KA1 KD1 KD2 (human); compound 1.0 µM): 97%
- residual activity (RPS6KA1 KD1 KD2 (human); compound 10.0 µM): 367%
- residual activity (MAPK3 (human); compound 1.0 µM): 105%
- residual activity (MAPK3 (human); compound 10.0 µM): 104%
- residual activity (MARK2 (human); compound 1.0 µM): 62%
- residual activity (MARK2 (human); compound 10.0 µM): 72%
- residual activity (MAPKAPK5 (human); compound 1.0 µM): 102%
- residual activity (MAPKAPK5 (human); compound 10.0 µM): 107%
- residual activity (CSNK2A1 (human); compound 1.0 µM): 71%
- residual activity (CSNK2A1 (human); compound 10.0 µM): 80%
- residual activity (SYK (human); compound 1.0 µM): 71%
- residual activity (SYK (human); compound 10.0 µM): 63%
